Assay results reported in US20240124483A1, “Methods for the Treatment of Fibrotic Disease” (SHY Therapeutics, LLC, priority 2021, published 2024).
Read-outs that look alike come from different tables or passages of the source.

How the values were obtained:
KRas G12D mutant = KRas G12D mutant (Homo sapiens (Human), UniProt P01116, G12D); assay: Ras GTP Binding Domain Inhibition Assay, KRas G12D mutant; settings: for inhibition at 20 µM: Table 7; for KRas G12D mutant + SOS: % inh. / KRas G12D mutant: % inh.: 20 uM, Table 8
KRas G12D mutant, sequence (P01116 other isoform, or with tags, fused parts or gaps G12D): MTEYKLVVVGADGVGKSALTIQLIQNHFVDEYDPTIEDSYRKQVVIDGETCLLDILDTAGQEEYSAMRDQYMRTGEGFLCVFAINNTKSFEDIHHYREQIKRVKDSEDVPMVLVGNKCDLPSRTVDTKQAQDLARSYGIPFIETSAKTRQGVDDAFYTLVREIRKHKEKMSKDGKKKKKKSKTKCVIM
Method in brief: (§1)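 His-tagged GTPase immobilized on nickel-coated plates (10-30 μg/mL, overnight, 4° C), then exposed to compound (20 μM or serial dilution for IC50, 1% DMSO) for 3 h at room temperature, with or without His-tagged Sos (residues 556-1049) in the final hour. Bound Cy3-GTP or Cy5-GTP (100 nM, 45 min) was read by fluorescence after washing.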

MiaPaca2 = MiaPaca2 proliferation; assay type: cell-based; settings: Homo sapiens, MIA PaCa-2; for inhibition at 10 µM: read-out: % inh of proliferation in MiaPaca2
KRas Q61H mutant = KRas Q61H mutant (Homo sapiens (Human), UniProt P01116, Q61H); assay: Ras GTP Binding Domain Inhibition Assay, KRas Q61H mutant; settings: 20 μM
KRas Q61H mutant, sequence (P01116 other isoform, or with tags, fused parts or gaps Q61H): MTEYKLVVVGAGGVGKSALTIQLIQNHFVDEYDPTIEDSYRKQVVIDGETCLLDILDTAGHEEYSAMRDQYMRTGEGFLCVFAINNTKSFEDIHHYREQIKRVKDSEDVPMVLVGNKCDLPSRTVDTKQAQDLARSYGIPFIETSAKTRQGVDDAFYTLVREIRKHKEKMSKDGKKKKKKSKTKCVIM
Method in brief: as §1

Smad2/3 phosphorylation = assay: Phospho-Smad2/3 Inhibition Assay in Panc-1 (western blot); assay type: cell-based; settings: Homo sapiens; 10 μM, 3 hours; PANC-1 stimulated with 10 ng/ml TGF-b1 for 1 hour; read-out: % inh of Smad2/3 phosphorylation in PANC-1
Method in brief: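 Serum-starved cells (0.5% FBS overnight) pretreated 3 h at 37 °C with compound at 10 μM or serial dilutions for IC50, in 0.3% DMSO. TGF-b1 10 ng/ml stimulation: 1 h for Panc-1 (human), 20 min for C2C12 (mouse). Phospho-Smad2 (Ser465/467) and phospho-Smad3 (Ser423/425) measured by western blot of lysates.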

KRas G12C mutant = KRas G12C mutant (Homo sapiens (Human), UniProt P01116, G12C); assay: Ras GTP Binding Domain Inhibition Assay, KRas G12C mutant
KRas G12C mutant, sequence (P01116 other isoform, or with tags, fused parts or gaps G12C): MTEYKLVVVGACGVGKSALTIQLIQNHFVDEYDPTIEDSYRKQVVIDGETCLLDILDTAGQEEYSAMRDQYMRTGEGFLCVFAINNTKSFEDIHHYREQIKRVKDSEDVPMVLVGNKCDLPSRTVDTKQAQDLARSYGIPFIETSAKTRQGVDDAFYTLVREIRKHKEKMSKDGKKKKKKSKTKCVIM
Method in brief: as §1

[1] = + SOS, read-out: KRas G12D mutant + SOS: % inh.
[2] = without SOS, read-out: KRas G12D mutant: % inh.
[3] = + SOS, read-out: KRas Q61H mutant + SOS: % inh.
[4] = without SOS, read-out: KRas Q61H mutant: % inh.
[5] = + SOS, read-out: KRas G12C mutant + SOS: % inh.
[6] = without SOS, read-out: KRas G12C mutant: % inh.

Structure (SMILES) | inhibition at 20 µM (KRas G12D mutant; [1]) [%] | KRas G12D mutant + SOS: % inh. (KRas G12D mutant; + SOS) | inhibition at 20 µM (KRas G12D mutant; [2]) [%] | KRas G12D mutant: % inh. (KRas G12D mutant; without SOS) | IC50 (MiaPaca2) [µM] | inhibition at 10 µM (MiaPaca2) [%] | inhibition at 20 µM (KRas Q61H mutant; [3]) [%] | inhibition at 20 µM (KRas Q61H mutant; [4]) [%] | inhibition at 10 µM (Smad2/3 phosphorylation) [%] | inhibition at 20 µM (KRas G12C mutant; [5]) [%] | inhibition at 20 µM (KRas G12C mutant; [6]) [%]
CO[C@H]1CNC[C@@H](Nc2nc(-c3nccn3C)nc3sc(-c4ccn(C(C)C)n4)cc23)C1 [Compound 28, 6-(1-Isopropyl-1H-pyrazol-3-yl)-N-((3S,5R)-5-methoxypiperidin-3-yl)-2-(1-methyl-1H-imidazol-2-yl)thieno[2,3-d]pyrimidin-4-amine] | 76 to 100 | D (D = 76-100% inhibition) | 46 to 75 | C (C = 46-75% inhibition) | 5 to 10 | 76 to 100 | 76 to 100 | 46 to 75 | 0 | 76 to 100 | 76 to 100
COCCn1c(-c2nccn2C)nc2sc(-c3ccn(C(C)C)n3)c(C)c2c1=O [Compound 29, 6-(1-Isopropyl-1H-pyrazol-3-yl)-3-(2-methoxyethyl)-5-methyl-2-(1-methyl-1H-imidazol-2-yl)thieno[2,3-d]pyrimidin-4(3H)-one] | 46 to 75 | C (C = 46-75% inhibition) | 46 to 75 | C (C = 46-75% inhibition) | 5 to 10 | 46 to 75 | 76 to 100 | 46 to 75 | 0 | 76 to 100 | 46 to 75
COCCOc1nc(-c2nccn2C)nc2sc(-c3ccn(C(C)C)n3)c(C)c12 [Compound 30, 6-(1-Isopropyl-1H-pyrazol-3-yl)-4-(2-methoxyethoxy)-5-methyl-2-(1-methyl-1H-imidazol-2-yl)thieno[2,3-d]pyrimidine] | 0 | 0 (0 = 0% inhibition) | 0 | 0 (0 = 0% inhibition) | > 10 | 1 to 25 | 1 to 25 | 0 | 0 | 0 | 1 to 25
COCCCn1c(-c2nccn2C)nc2sc(-c3ccn(C(C)C)n3)c(C)c2c1=O [Compound 31, 6-(1-Isopropyl-1H-pyrazol-3-yl)-3-(3-methoxypropyl)-5-methyl-2-(1-methyl-1H-imidazol-2-yl)thieno[2,3-d]pyrimidin-4(3H)-one] | 0 | 0 (0 = 0% inhibition) | 0 | 0 (0 = 0% inhibition) | > 10 | 0 | 0 | 0 | 0 | 0 | 0
COCCCOc1nc(-c2nccn2C)nc2sc(-c3ccn(C(C)C)n3)c(C)c12 [Compound 32, 6-(1-Isopropyl-1H-pyrazol-3-yl)-4-(3-methoxypropoxy)-5-methyl-2-(1-methyl-1H-imidazol-2-yl)thieno[2,3-d]pyrimidine] | 46 to 75 | C (C = 46-75% inhibition) | 46 to 75 | C (C = 46-75% inhibition) | 5 to 10 | 76 to 100 | 46 to 75 | 46 to 75 | 0 | 46 to 75 | 46 to 75
COCCCCn1c(-c2nccn2C)nc2sc(-c3ccn(C(C)C)n3)c(C)c2c1=O [Compound 33, 6-(1-Isopropyl-1H-pyrazol-3-yl)-3-(4-methoxybutyl)-5-methyl-2-(1-methyl-1H-imidazol-2-yl)thieno[2,3-d]pyrimidin-4(3H)-one] | 0 | 0 (0 = 0% inhibition) | 0 | 0 (0 = 0% inhibition) | > 10 | 0 | 1 to 25 | 0 | 0 | 1 to 25 | 0
COCCCCOc1nc(-c2nccn2C)nc2sc(-c3ccn(C(C)C)n3)c(C)c12 [Compound 34, 6-(1-Isopropyl-1H-pyrazol-3-yl)-4-(4-methoxybutoxy)-5-methyl-2-(1-methyl-1H-imidazol-2-yl)thieno[2,3-d]pyrimidine] | 0 | 0 (0 = 0% inhibition) | 1 to 25 | A (A = 1-25% inhibition) | > 10 | 26 to 45 | 1 to 25 | 0 | 0 | 1 to 25 | 0
